{"source": "patent US8999315B2", "about": "“Bis-quaternary ammonium salt corrosion inhibitors” (Nalco Company, priority 2004, dated 2015)", "key": {"[1]": {"experiment": "Wheelbox Test (corrosion of coupons in CO2-purged brine/hydrocarbon)", "details": "actives only, 24 hours at 176° F., brine/LVT 200, 500 ppm acetic acid", "experimental": "Cleaned and pre-weighed coupons are put into bottles containing a mixture of brine (180 mL), and hydrocarbon (LVT 200, 20 mL) and 500 ppm of acetic acid and the resulting mixture is purged with carbon dioxide. An increasing amount of tested inhibitor (5, 10, 25 and 50 ppm) is added into the bottles, the air space in the bottles is purged with CO2 mixture and immediately capped to avoid air contamination. In addition to those bottles that are dosed with inhibitor, three bottles remain untreated. The complete set of capped test bottles is set on the rotating wheel, and run for 24 hours at 176° F. On conclusion of the test, the bottles are removed and allowed to cool to room temperature. The bottles are then uncapped and the coupons are removed, cleaned, dried and re-weighed. Corrosion rate and protection efficiency are then calculated by comparing the mass loss of inhibited coupons to those of the blanks.\nComparative test results for representative bis-quaternary ammonium salts prepared according to the methods of Examples 1 and 2 and a commercially available quaternary ammonium salt are shown in Table 1."}, "[2]": {"experiment": "Field Trial, corrosion rate by electrical resistance MicroCor probes in a production line", "details": "corrosion inhibitor formulations, gas/oil/brine multiphase flow", "from_the_text": "Field corrosion rate data are obtained from a production line in an Alaskan field that is equipped with high sensitivity electrical resistance MicroCor probes (Rohrback Cosasco Systems, Santa Fe Springs, Calif.). The sensing element of the probe, positioned into gas/oil/brine multiphase flow, reads a cumulative metal loss that is transformed into corrosion rate. Once an uninhibited corrosion rate baseline has been established, corrosion inhibitor formulations are incrementally injected upstream of the probe over a period of thirty hours. The resulting drop in corrosion rates are used to calculates protection efficiency and establish the relative rankings of corrosion inhibitor formulations.\nComparative test results for representative bis-quaternary ammonium salts prepared according to the methods of Examples 1 and 2, a commercially available quaternary ammonium salt and a commercially available alkylbenzyldimethylammonium salt are shown in Table 2."}, "[3]": {"test_system": "sulfate-reducing bacteria", "experiment": "Biostatic Assay (NACE standard, serial dilution)", "format": "cell-based", "details": "actives only", "experimental": "The biostatic properties of representative bis-quaternary ammonium salts are characterized according to the current NACE standard—NACE TMO194094. Viable organisms are cultured from aqueous field samples in iron-rich media purchased from Commercial Microbiology (Houston, Tex.). Stock solutions of the viable organisms in ferrous media are serially diluted in triplicate. Black iron sulfide precipitates indicate micobial growth (of sulfate-reducing bacteria). Clear media solutions indicate complete cell death. Pure media solutions are used as controls and compared against media spiked with 5 to 500 ppm of a test compound. Additives that require increased dilutions to attain complete cell death […], relative to the standard. Those compounds that required fewer dilutions are relatively biostatic.\nComparative test results for representative bis-quaternary ammonium salts prepared according to the methods of Examples 1 and 2 and commercially available quaternary ammonium salts A and B are shown in Table 3."}}}
{"smiles": "CCCCCCCCCCCC[N+](C)(C)CC(O)C[N+](C)(C)CCCCCCCCCCCC.CCCCCCCCCCCC[N+](C)(C)CC(O)C[N+](C)(C)CCCCCCCCCCCC.O=S(=O)([O-])[O-].[Cl-].[Cl-]", "note": "[Example 1]", "values": [{"measurement": "Percent Protection", "setting": "[1]; 5 ppm inhibitor", "value": 65, "unit": "%"}, {"measurement": "Percent Protection", "setting": "[1]; 10 ppm inhibitor", "value": 81, "unit": "%"}, {"measurement": "Percent Protection", "setting": "[1]; 25 ppm inhibitor", "value": 92, "unit": "%"}, {"measurement": "Percent Protection", "setting": "[1]; 50 ppm inhibitor", "value": 91, "unit": "%"}, {"measurement": "Percent Protection", "setting": "[2]; 3 ppm", "value": 60.5, "unit": "%"}, {"measurement": "Percent Protection", "setting": "[2]; 6 ppm", "value": 87.6, "unit": "%"}, {"measurement": "Percent Protection", "setting": "[2]; 11 ppm", "value": 89.8, "unit": "%"}, {"measurement": "Percent Protection", "setting": "[2]; 22 ppm", "value": 91.8, "unit": "%"}, {"measurement": "Percent Protection", "setting": "[2]; 44 ppm", "value": 98.3, "unit": "%"}, {"measurement": "log reduction of SRB growth", "setting": "[3]; 10 ppm", "value": 6, "unit": "log"}, {"measurement": "log reduction of SRB growth", "setting": "[3]; 25 ppm", "value": 6, "unit": "log"}, {"measurement": "log reduction of SRB growth", "setting": "[3]; 100 ppm", "value": 6, "unit": "log"}]}
{"smiles": "CCCCCCCCC=CCCCCCCCCN(CC(O)C[N+](C)(C)CCCCCCCCCCCC)CC(O)C[N+](C)(C)CCCCCCCCCCCC.[Cl-].[Cl-]", "note": "(stereo not drawn) [Example 2]", "values": [{"measurement": "Percent Protection", "setting": "[1]; 5 ppm inhibitor", "value": 21, "unit": "%"}, {"measurement": "Percent Protection", "setting": "[1]; 10 ppm inhibitor", "value": 73, "unit": "%"}, {"measurement": "Percent Protection", "setting": "[1]; 25 ppm inhibitor", "value": 86, "unit": "%"}, {"measurement": "Percent Protection", "setting": "[1]; 50 ppm inhibitor", "value": 89, "unit": "%"}, {"measurement": "Percent Protection", "setting": "[2]; 3 ppm", "value": 76.2, "unit": "%"}, {"measurement": "Percent Protection", "setting": "[2]; 6 ppm", "value": 96.2, "unit": "%"}, {"measurement": "Percent Protection", "setting": "[2]; 11 ppm", "value": 95.3, "unit": "%"}, {"measurement": "Percent Protection", "setting": "[2]; 22 ppm", "value": 97.8, "unit": "%"}, {"measurement": "Percent Protection", "setting": "[2]; 44 ppm", "value": 98.0, "unit": "%"}, {"measurement": "log reduction of SRB growth", "setting": "[3]; 10 ppm", "value": 0, "unit": "log"}, {"measurement": "log reduction of SRB growth", "setting": "[3]; 25 ppm", "value": 6, "unit": "log"}, {"measurement": "log reduction of SRB growth", "setting": "[3]; 100 ppm", "value": 6, "unit": "log"}]}
